{"source": "patent US20250339391A1", "about": "“METHODS FOR EFFECTIVE MANAGEMENT OF PAIN” (South Rampart Pharma, Inc., priority 2024, published 2025)", "assay": "LC-MS/MS detection of D10-SRP-001 in rat brain (PAG)", "format": "in vivo", "settings": "30 min after IP injection", "protocol": "Deuterated compound D10-SRP-001 was synthesized by Olon Ricerca Bioscience (Concord, OH), and purity was determined to be >99.9% by HPLC. This was used as pure analytical standard for detection of SRP-001 using an LC-MS/MS method. Similarly, pure analytical standard of AM404 (10 ng/mL) obtained from Cayman Chemical (Ann Arbor, MI) was used to characterize the full fragmentation pattern of AM404. […] Thirty min post-injection, the animals were sacrificed (same as in the CFA/von Frey model), their brains harvested, and the midbrain periaqueductal gray (PAG) region excised. SRP-001 or AM404 were extracted from the PAG using a liquid-liquid extraction method using 1:1 MeOH:H2O for LC-MS/MS and were loaded onto a liquid chromatography-tandem mass spectrophotometer for analysis. The mass spectrophotometer was operated in multiple reaction monitoring (MRM) mode using positive ion electrospray. D10-SRP-001 was detected by monitoring the m/z transition 416→186. AM404 was detected by monitoring the m/z transition 396→287."}
{"molecule": "[2H]C([2H])([2H])C([2H])([2H])N(C(=O)c1ccccc1S(=O)(=O)NCC(=O)Nc1ccc(O)cc1)C([2H])([2H])C([2H])([2H])[2H]", "note": "[D10-SRP-001]", "values": [{"measurement": "detection in the brain", "result": "detected in the brain"}]}
